From publication PMC6835510, “Magnificamide, a β-Defensin-Like Peptide from the Mucus of the Sea Anemone Heteractis magnifica, Is a Strong Inhibitor of Mammalian α-Amylases” (Marine Drugs, 2019)
Bridge positions count the residues as written; N and C are the ends. Ends that are not written are not given here.

Experiments:
Shaker IR = test: Two-electrode voltage-clamp; type: cell-based, Drosophila; conditions: 10 µM; insect channel; Xenopus laevis oocytes; 18–22 °C
Source text: (§1) For the expression of Nav channels (mammalian rNav1.2, rNav1.4, hNav1.5, mNav1.6 and hNav1.8 channels; the insect channel BgNav1 from Blattella germanica; and the auxiliary subunits rβ1, hβ1, and TipE) and Kv channels (mammalian rKv1.1, rKv1.2, hKv1.3, rKv1.4, rKv1.5, rKv1.6, rKv2.1, hKv3.1, rKv4.2, hKv10.1, and hERG; and Drosophila Shaker’s IR) in Xenopus laevis oocytes; the linearized plasmids were transcribed using the T7 or SP6 mMESSAGE-mMACHINE transcription kit (Ambion, Carlsbad, CA, USA). The harvesting of stage V–VI oocytes from anesthetized female Xenopus laevis frog was previously described. Oocytes were injected with 50 nL of cRNA at a concentration of 1 ng/nL using a microinjector (Drummond Scientific, Broomall, PA, USA). The oocytes were incubated in a solution containing 96-mM NaCl, 2-mM KCl, 1.8-mM CaCl2, 2-mM MgCl2, and 5-mM HEPES (pH 7.4), supplemented with 50 mg/L gentamycin sulfate.
(§2) Two-electrode voltage-clamp recordings were performed at room temperature (18–22 °C) using a Geneclamp 500 amplifier (Molecular Devices, Downingtown, PA, USA) controlled by a pClamp data acquisition system (Axon Instruments, Union City, CA, USA). Whole cell currents from oocytes were recorded 1–4 days after injection. […] All data were analyzed using pClamp Clampfit 10.0 (Molecular Devices, Downingtown, PA, USA) and Origin 7.5 software (Originlab, Northampton, MA, USA).

BgNav1 = test: Two-electrode voltage-clamp; type: cell-based, Blattella germanica; conditions: 10 µM; insect channel; Xenopus laevis oocytes; 18–22 °C
Source text: as §1, §2

[1] = molecular target: T1, porcine pancreatic α-amylase (PPA) (Sus scrofa, UniProt P00690); test: PPA inhibitory activity of RP-HPLC fractions; type: biochemical; conditions: 10 µL sample, PPA 1 µg/mL, 50 mM sodium phosphate, 100 mM NaCl, pH 7.0, 10 min RT, CNPG3 1 mM, 405 nm
T1 construct: purchased Sigma Aldrich A4268
T1 sequence (P00690 16-511): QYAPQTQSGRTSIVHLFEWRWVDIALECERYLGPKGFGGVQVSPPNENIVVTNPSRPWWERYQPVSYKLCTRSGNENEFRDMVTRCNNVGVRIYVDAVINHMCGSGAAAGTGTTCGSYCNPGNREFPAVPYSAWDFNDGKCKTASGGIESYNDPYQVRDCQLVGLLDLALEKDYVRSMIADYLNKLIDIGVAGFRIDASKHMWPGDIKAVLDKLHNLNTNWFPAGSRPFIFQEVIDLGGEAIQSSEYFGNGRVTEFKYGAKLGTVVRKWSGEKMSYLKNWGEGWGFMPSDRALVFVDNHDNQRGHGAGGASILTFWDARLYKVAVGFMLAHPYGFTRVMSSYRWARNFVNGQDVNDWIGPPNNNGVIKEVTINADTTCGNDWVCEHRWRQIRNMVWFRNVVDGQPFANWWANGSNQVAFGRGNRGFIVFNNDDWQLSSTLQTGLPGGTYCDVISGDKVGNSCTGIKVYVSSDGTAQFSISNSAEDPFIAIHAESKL
Method: The porcine α-amylase (PPA) inhibitory activity of the peptide fractions obtained by RP-HPLC was tested by the following procedure. Experimental samples (10 µL) were added to 80 µL of 50 mM sodium phosphate, 100 mM sodium chloride buffer (pH 7.0), and PPA (A4268) (1 µg/mL) (Sigma Aldrich, St. Louis, MO, USA), and incubated for 10 min at RT. The substrate solution, 2-chloro-4-nitrophenyl α-D-maltotrioside (CNPG3) (Sigma Aldrich, St. Louis, MO, USA), was added to the reaction mixture (1 mM) and incubated for 10 min at RT. The optical absorption was measured on an xMark microplate spectrophotometer (BioRad, Hercules, CA, USA) at 405 nm.

With “SEGTSCYIYHGVYGICKAKCAEDMKAMAGMGVCEGDLCCYKTPW (disulfide 6-38, 16-33, 20-39) [r-magnificamide]” the “Channel modulating activity, Shaker” value (Shaker IR) was “Not active”, the “Channel modulating activity, BgNav1” value (BgNav1) was “Not active” and the “PPA inhibition by RP-HPLC fraction” value [1] was “inhibited PPA”.
